# Measurements from the supplement of paper PMC11208160.
# Test: recombinant UMI read abundance after kanamycin selection (control-corrected) (log10(CPM+1)); higher = more efficient recombination; extreme values may be limits of the assay; sequences stand for … in AGTGCAGAGAAAATCGGCCAGTTTTCTCTGCCTGCAGTCCGCATGCCGTGGGACCCCTTGGGTTCTAACCTGTTGCCTAGATTTATGCAGCGGACTGCCTTTCTCCCAAAGTGATAAACCGG…AGGTTGGTTTCACT; site = the 11-nt donor
# Procedure: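 Pooled E. coli donor-specificity screen for the IS621 bridge recombinase. Each library member carries a reprogrammed 11-nt donor and a full-length LE bridge RNA expressed in cis from the natural promoter, with a paired donor-binding loop (8-nt LDG + 4-nt RDG) and a target-binding loop fixed to T5. It is co-electroporated with a T5 target plasmid; recombinase is induced with 0.07 mM IPTG and recombinants are selected on kanamycin. UMIs are counted as CPM, averaged over two biological replicates and corrected by the unselected control. Molecule = full bridge RNA written as DNA, built from the T5 scaffold: LDG = donor specificity nt 1-8, RDG = reverse complement of nt 8-11.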
# 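Further: IS621 bridge recombinase in Escherichia coli cells against a fixed T5 target plasmid.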
row,Sequence,recombinant UMI read abundance (log10)
1,AAAACTTCATGGACCGGTTTTCCCGGTAATCCGTATTTGTC (site AAAACTTCTGA),0
2,AAAAGTCCATGGACCGGTTTTCCCGGTAATCCGTATTTGTA (site AAAAGTCCTTA),0.66
3,AAAAGTCCATGGACCGGTTTTCCCGGTAATCCGTATTTGTA (site CAAAGTCCTTA),0.48
4,AAAAGTCCATGGACCGGTTTTCCCGGTAATCCGTATTTGTA (site GAAAGTCCTTA),0.273
5,AAAAGTCCATGGACCGGTTTTCCCGGTAATCCGTATTTGTA (site TAAAGTCCTTA),1.12
6,AAACATCCATGGACCGGTTTTCCCGGTAATCCGTATTTGAC (site AAACATCCTGT),1.26
7,AAACATCCATGGACCGGTTTTCCCGGTAATCCGTATTTGAC (site ACACATCCTGT),0
8,AAACATCCATGGACCGGTTTTCCCGGTAATCCGTATTTGAC (site AGACATCCTGT),0
9,AAACATCCATGGACCGGTTTTCCCGGTAATCCGTATTTGAC (site ATACATCCTGT),0
10,AAACGTCCATGGACCGGTTTTCCCGGTAATCCGTATTTGTT (site AAACGTCCTAA),0.525
11,AAACTTACATGGACCGGTTTTCCCGGTAATCCGTATTTGCA (site AAACTTACTTG),1.52
12,AAACTTGCATGGACCGGTTTTCCCGGTAATCCGTATTTGGC (site AAACTTGCTGC),0
13,AAAGAAGCATGGACCGGTTTTCCCGGTAATCCGTATTTGGA (site AAAGAAGCTTC),1.94
14,AAAGAGGCATGGACCGGTTTTCCCGGTAATCCGTATTTGCA (site AAAGAGGCTTG),2.9
15,AAAGATCCATGGACCGGTTTTCCCGGTAATCCGTATTTGCC (site AAAGATCCTGG),0
16,AAAGCAGCATGGACCGGTTTTCCCGGTAATCCGTATTTGCT (site AAAGCAGCTAG),1.82
17,AAAGCAGCATGGACCGGTTTTCCCGGTAATCCGTATTTGCT (site CAAGCAGCTAG),1.5
18,AAAGCAGCATGGACCGGTTTTCCCGGTAATCCGTATTTGCT (site GAAGCAGCTAG),0.198
19,AAAGCAGCATGGACCGGTTTTCCCGGTAATCCGTATTTGCT (site TAAGCAGCTAG),1.67
20,AAAGCCACATGGACCGGTTTTCCCGGTAATCCGTATTTGTA (site AAAGCCACTTA),1.82
21,AAAGGTACATGGACCGGTTTTCCCGGTAATCCGTATTTGAG (site AAAGGTACTCT),2.1
22,AAAGGTTCATGGACCGGTTTTCCCGGTAATCCGTATTTGGG (site AAAGGTTCTCC),1.05
23,AAAGTAACATGGACCGGTTTTCCCGGTAATCCGTATTTGCA (site AAAGTAACTTG),2.88
24,AAAGTAACATGGACCGGTTTTCCCGGTAATCCGTATTTGCA (site ACAGTATCTTG),2.56

row,Sequence,recombinant UMI read abundance (log10)
1,AAAGTACCATGGACCGGTTTTCCCGGTAATCCGTATTTGCG (site AAAGTACCTCG),0.0963
2,AAAGTCTCATGGACCGGTTTTCCCGGTAATCCGTATTTGAT (site AAAGTCTCTAT),3.17
3,AAAGTCTCATGGACCGGTTTTCCCGGTAATCCGTATTTGCA (site AAAGTCTCTTG),3.16
4,AAAGTCTCATGGACCGGTTTTCCCGGTAATCCGTATTTGCA (site ACAGTATCTTG),1.99
5,AAATAACCATGGACCGGTTTTCCCGGTAATCCGTATTTGAA (site AAATAACCTTT),0
6,AAATAAGCATGGACCGGTTTTCCCGGTAATCCGTATTTGGG (site AAATAAGCTCC),0.434
7,AAATCCGCATGGACCGGTTTTCCCGGTAATCCGTATTTGTC (site AAATCCGCTGA),2.33
8,AAATGGGCATGGACCGGTTTTCCCGGTAATCCGTATTTGCT (site AAATGGGCTAG),2.28
9,AAATGTTCATGGACCGGTTTTCCCGGTAATCCGTATTTGCC (site AAATGTTCTGG),2.2
10,AAATTCCCATGGACCGGTTTTCCCGGTAATCCGTATTTGCT (site AAATTCCCTAG),1.37
11,AAATTCCCATGGACCGGTTTTCCCGGTAATCCGTATTTGCT (site CAATTCCCTAG),0.647
12,AAATTCCCATGGACCGGTTTTCCCGGTAATCCGTATTTGCT (site GAATTCCCTAG),0.544
13,AAATTCCCATGGACCGGTTTTCCCGGTAATCCGTATTTGCT (site TAATTCCCTAG),1.08
14,AAATTCCCATGGACCGGTTTTCCCGGTAATCCGTATTTGGT (site AAATTCCCTAC),0
15,AACACACCATGGACCGGTTTTCCCGGTAATCCGTATTTGAC (site AACACACCTGT),0
16,AACACCTCATGGACCGGTTTTCCCGGTAATCCGTATTTGAT (site AACACCTCTAT),1.76
17,AACAGAGCATGGACCGGTTTTCCCGGTAATCCGTATTTGAT (site AACAGAGCTAT),2.02
18,AACCAAACATGGACCGGTTTTCCCGGTAATCCGTATTTGTC (site AACCAAACTGA),0
19,AACCCACCATGGACCGGTTTTCCCGGTAATCCGTATTTGGA (site AACCCACCTTC),0.0204
20,AACCGCCCATGGACCGGTTTTCCCGGTAATCCGTATTTGAT (site AACCGACCTAT),0.0035
21,AACCGCCCATGGACCGGTTTTCCCGGTAATCCGTATTTGAT (site AACCGCCCTAT),0.00906
22,AACCGCCCATGGACCGGTTTTCCCGGTAATCCGTATTTGAT (site AACCGGCCTAT),0.00971
23,AACCGCCCATGGACCGGTTTTCCCGGTAATCCGTATTTGAT (site AACCGTCCTAT),0.0447
24,AACCGGCCATGGACCGGTTTTCCCGGTAATCCGTATTTGAT (site AACCGACCTAT),0

row,Sequence,recombinant UMI read abundance (log10)
1,AACCGGCCATGGACCGGTTTTCCCGGTAATCCGTATTTGAT (site AACCGCCCTAT),0.014
2,AACCGGCCATGGACCGGTTTTCCCGGTAATCCGTATTTGAT (site AACCGGCCTAT),0.016
3,AACCGGCCATGGACCGGTTTTCCCGGTAATCCGTATTTGAT (site AACCGTCCTAT),0.0213
4,AACCGGTCATGGACCGGTTTTCCCGGTAATCCGTATTTGGA (site AACCGGTCTTC),0.422
5,AACCGTCCATGGACCGGTTTTCCCGGTAATCCGTATTTGAA (site AACCGTCCTAT),0.0196
6,AACCGTCCATGGACCGGTTTTCCCGGTAATCCGTATTTGAA (site AACCGTCCTCT),0.0191
7,AACCGTCCATGGACCGGTTTTCCCGGTAATCCGTATTTGAA (site AACCGTCCTGT),0
8,AACCGTCCATGGACCGGTTTTCCCGGTAATCCGTATTTGAA (site AACCGTCCTTT),0.0144
9,AACCGTCCATGGACCGGTTTTCCCGGTAATCCGTATTTGCT (site AACCGTCCTAA),0.0135
10,AACCGTCCATGGACCGGTTTTCCCGGTAATCCGTATTTGCT (site AACCGTCCTAC),0.00247
11,AACCGTCCATGGACCGGTTTTCCCGGTAATCCGTATTTGCT (site AACCGTCCTAG),0.593
12,AACCGTCCATGGACCGGTTTTCCCGGTAATCCGTATTTGCT (site AACCGTCCTAT),0.0146
13,AACCGTCCATGGACCGGTTTTCCCGGTAATCCGTATTTGGT (site AACCGTCCTAA),0.0129
14,AACCGTCCATGGACCGGTTTTCCCGGTAATCCGTATTTGGT (site AACCGTCCTAC),0.0164
15,AACCGTCCATGGACCGGTTTTCCCGGTAATCCGTATTTGGT (site AACCGTCCTAG),0.00368
16,AACCGTCCATGGACCGGTTTTCCCGGTAATCCGTATTTGGT (site AACCGTCCTAT),0.00572
17,AACCTTCCATGGACCGGTTTTCCCGGTAATCCGTATTTGAA (site AACCTTCCTTT),0.0147
18,AACGACGCATGGACCGGTTTTCCCGGTAATCCGTATTTGTA (site AACGACGCTTA),1.99
19,AACGAGCCATGGACCGGTTTTCCCGGTAATCCGTATTTGAA (site AACGAGCCTTT),0.157
20,AACGCAACATGGACCGGTTTTCCCGGTAATCCGTATTTGTT (site AACGCAACTAA),0.495
21,AACGCTGCATGGACCGGTTTTCCCGGTAATCCGTATTTGAA (site AACGCTGCTTT),1.06
22,AACGGAACATGGACCGGTTTTCCCGGTAATCCGTATTTGAT (site AACGGAACTAT),2.33
23,AACGGTCCATGGACCGGTTTTCCCGGTAATCCGTATTTGGC (site AACGGTCCTGC),0
24,AACGTTTCATGGACCGGTTTTCCCGGTAATCCGTATTTGCT (site AACGTTTCTAG),2.48
